Results taken from ChEMBL document CHEMBL5214930, “Discovery of the First Selective IDO2 Inhibitor As Novel Immunotherapeutic Avenues for Rheumatoid Arthritis” (J Med Chem, 2022).

Tests used:
[1] = target: T1, Indoleamine 2,3-dioxygenase 1 (Homo sapiens, UniProt P14902); assay: Inhibition of human IDO1
Target sequence in this assay (P14902 whole entry): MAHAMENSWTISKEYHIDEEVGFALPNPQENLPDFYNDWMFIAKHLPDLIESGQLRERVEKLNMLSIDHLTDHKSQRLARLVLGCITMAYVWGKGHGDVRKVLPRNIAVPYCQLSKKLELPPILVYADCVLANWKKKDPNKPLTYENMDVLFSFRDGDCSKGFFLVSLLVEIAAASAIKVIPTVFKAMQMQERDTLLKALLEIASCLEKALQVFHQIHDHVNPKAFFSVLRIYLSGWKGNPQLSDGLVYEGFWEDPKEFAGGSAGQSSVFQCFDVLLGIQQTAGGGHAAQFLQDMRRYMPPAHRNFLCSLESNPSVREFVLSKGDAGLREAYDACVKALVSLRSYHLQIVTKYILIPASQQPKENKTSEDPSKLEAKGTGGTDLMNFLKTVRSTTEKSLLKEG

HeLa [2] = assay: Antiproliferative activity against human HeLa cells; assay type: functional, cell-based
[3] = target: T2, Indoleamine 2,3-dioxygenase 2 (Homo sapiens) (UniProt Q6ZQW0); assay: Inhibition of recombinant human IDO2 in HeLa cells at 100 nM relative to control; assay type: cell-based
T2 sequence (whole entry): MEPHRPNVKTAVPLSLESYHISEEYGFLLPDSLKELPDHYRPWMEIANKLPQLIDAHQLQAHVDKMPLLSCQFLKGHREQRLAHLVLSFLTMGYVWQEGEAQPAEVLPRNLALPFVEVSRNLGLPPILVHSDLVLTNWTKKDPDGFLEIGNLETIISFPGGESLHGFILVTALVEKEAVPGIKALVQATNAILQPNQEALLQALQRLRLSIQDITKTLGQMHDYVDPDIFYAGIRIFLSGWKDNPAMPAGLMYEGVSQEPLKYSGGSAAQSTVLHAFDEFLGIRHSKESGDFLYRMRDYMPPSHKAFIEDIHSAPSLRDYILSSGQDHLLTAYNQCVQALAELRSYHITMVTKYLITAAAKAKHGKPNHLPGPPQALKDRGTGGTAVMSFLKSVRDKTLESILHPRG

[4] = target: T2, Indoleamine 2,3-dioxygenase 2 (Homo sapiens); assay: Inhibition of recombinant human IDO2 in HeLa cells at […] relative to control; assay type: cell-based
[5] = target: T3, Indoleamine 2,3-dioxygenase 2 (Homo sapiens, UniProt Q6ZQW0); assay: Inhibition of human IDO2
T3 sequence (Q6ZQW0 whole entry): T2 sequence (whole entry)

[6] = target: T1, Indoleamine 2,3-dioxygenase 1; assay: Inhibition of recombinant human IDO1 in HeLa cells at 100 nM relative to control; assay type: cell-based
Target sequence in this assay (P14902 whole entry, looked up): as the sequence (P14902 whole entry) above

[7] = target: T3, Indoleamine 2,3-dioxygenase 2; assay: Inhibition of IDO2 (unknown origin)
HeLa [8] = assay: Antiproliferative activity against human HeLa cells at 5 uM; assay type: functional

| SMILES | IC50 [1] | EC50 (HeLa [2]) | inhibition [3] | inhibition [4] | IC50 [5] | inhibition [6] | IC50 [7] | Activity (HeLa [8]) |
| --- | --- | --- | --- | --- | --- | --- | --- | --- |
| O=C(NCc1cn(CCNc2nonc2/C(=N/O)Nc2cccc(Br)c2)nn1)c1ccccn1 | 37 nM | 65 nM | 16% | 64% | 575 nM | 71% |  |  |
| c1ccc(CCc2ccccc2-c2c[nH]nn2)cc1 |  |  |  |  |  |  | 51 µM |  |
| C[C@H](N/C(=N\O)c1nonc1NCCn1cc(CNC(=O)c2ccc[nH]2)nn1)c1cccc(Br)c1 |  |  |  | 15% |  | 14% |  | 22.74% |
| O=C(NCc1cn(CCNc2nonc2/C(=N/O)NCc2ccc(Br)cc2)nn1)c1ccccn1 |  | 3420 nM |  | 1% |  | 0% |  |  |
| O=C(NCc1cn(CCNc2nonc2/C(=N/O)Nc2cc(Br)cc(Br)c2)nn1)c1ccccn1 |  | 1450 nM | 15% | 52% |  | 11% |  |  |
| O=C(NCc1cn(CCNc2nonc2/C(=N/O)NCc2ccc(F)cc2)nn1)c1ccccn1 |  | 1080 nM |  | 0% |  | 7% |  |  |
| O=C(NCc1cn(CCNc2nonc2/C(=N/O)Nc2ccc(F)c(Cl)c2)nn1)c1ccccn1 |  | 234 nM | 16% | 38% |  | 52% |  |  |
